From patent publication US7153822B2, “Compositions and methods for modulating connexin hemichannels” (Wyeth, priority 2002, dated 2006)
Square brackets hold non-standard residues; d marks the D form. Peptide text beside a SMILES is read from it. dHyp = O=C(O)[C@H]1C[C@H](O)CN1

Columns and labels:
infarcted mice = experiment: bone marrow cell transplantation after myocardial infarction (design of Orlic et al); format: in vivo; settings: repeated administration during the proliferation process
Text: Myocardial infarction leads to loss of tissue and impairment of cardiac performance. The remaining myocytes are unable to reconstitute the necrotic tissue, and the post-infarcted heart deteriorates with time. Injury to a target organ is sensed by distant stem cells, which migrate to the site of damage and undergo alternate stem cell differentiation; these events promote structural and functional repair. This high degree of stem cell plasticity prompted Orlic et al (Nature 410, 701–705 (2001)) to test whether dead myocardium could be restored by transplanting bone marrow cells in infarcted mice. They sorted lineage-negative (Lin−) bone marrow cells from transgenic mice expressing enhanced green fluorescent protein by fluorescence-activated cell sorting on the basis of c-kit expression. Shortly after coronary ligation, Lin− c-kitPOS cells were injected in the contracting wall bordering the infarct. […] The developing tissue comprised proliferating myocytes and vascular structures. Their studies indicate that locally delivered bone marrow cells can generate de novo myocardium, ameliorating the outcome of coronary artery disease. […]

[1] = system: neonatal rat ventricular cardiomyocytes; settings: cited from earlier work
[2] = rat, in vivo, sc
Description: Compound 1 was delivered by an osmotic minipump (Alzet model 2ML4) that was inserted into the intraperitoneal (i.p.) cavity immediately prior to induction of the myocardial infarction. The pump was filled with vehicle (isotonic saline) or Compound 1 and primed at 37° C. for 24 hours prior to the operation. In order to ensure that the therapeutic plasma concentration was obtained already at the time of infarction, a loading dose of Compound 1 was given s.c. prior to ligation of the LAD.
After administration of the s.c. loading dose of Compound 1 and after i.p. insertion of the osmotic minipump, a left thoracotomy was performed, and the left anterior decending artery was ligated using a 6-0 silk suture. The thorax is closed in layers, and a negative pressure was induced in the pleural cavity to unfold the lungs. Sham-operated animals were subjected to the same procedure without ligation of the LAD. Postoperatively, the animal were allowed to recover in a heated cabinet at 30° C. with 50% oxygen until the next morning. To prevent dehydration during the recovery period, the rat was given 5 ml 5% glucose s.c. immediately after completion of surgery and another 5 ml 5% glucose at 4 p.m. To relieve postoperative pain, the rat was treated with buprenorphine (20 μg/100 g s.c. b.i.d.) and meloxicam (0.1 mg/100 g s.c. once daily) for three days after the myocardial infarction. […] Plasma concentrations of Compound 1 were measured by mass spectrometry following solid phase extraction.

[3] = system: cultured primary cardiomyocytes; experiment: stimulus-activation interval (conduction velocity) during glucose removal, patch clamp; format: cell-based, rat; settings: 10 nM, superfusion 20 min after 15 min without glucose
Description: 1. Cell culture: In short the hearts from 20 neonate rats (age 1–2 days) are excised aseptically. The ventricles are isolated and cut into 4–6 pieces, which are digested in several steps in a Hanks buffered saline with trypsin and DNAse. The cells are then centrifuged and resuspended in MEM with 5% FCS. To eliminate non-muscle cells the suspension is preplated in petri dishes for 30 minutes at 37° C. The cells in suspension are then seeded onto collagen coated coverslips. Seeding density will be adjusted to give confluent cultures.
2. Electrophysiology: The cover slips with confluent cardiomyocytes are mounted in an open chamber on the stage of an inverted microscope and superfused with Dulbeccos phosphate buffered saline (PBS) by gravity driven flow at 1 ml/min, 37° C. The solution (PBS) contain (in mM): Na+ 152, K+ 4.2, Cl− 141.5, PO43− 9.5, Ca2+ 0.9, Mg2+ 0.5, pH 7.4. Patch clamp pipettes are pulled from 1.5 mm glass capillaries (GC150F-15, Harvard Apparatus) on a Sutter Flaming-Brown P-87 microelectrode puller and fire polished to a resistance of 4–6 MW. […]
The cells were perfused with control solution with 0.1 g/l BSA until a stable baseline in the stimulus-activation interval (SAI) was established. […] Date are expressed as percent change relative to baseline prior to removal of glucose from the media.

SMILES: CC(=O)N[C@H](Cc1ccc(O)cc1)C(=O)N1CCC[C@@H]1C(=O)N1C[C@@H](O)C[C@@H]1C(=O)NCC(=O)N[C@H](C)C(=O)NCC(N)=O [Compound 1, Ac-D-Tyr-D-Pro-D-4Hyp-Gly-D-Ala-Gly-NH2] (Ac-[dY][dP][dHyp]G[dA]G-NH2)
- connexin 43 expression (infarcted mice): increase in connexin 43 expression
- noradrenalin-induced PI turnover, level relative to normal ([1]; during oxygen and glucose deprivation (untreated app. 50%)): ~90 % of the normal level
- noradrenalin-induced level of PI turnover ([1]; normal atmospheric and nutritional conditions): does not alter
- time to steady-state plasma level [2]: 3 min
- stimulus-activation interval [3]: decreased the stimulus-activation interval
